Reference: PubChem BioAssay (NCI)
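Tested at 5 concentrations; 48 h exposure; 96-well plates; endpoints linearly interpolated, else capped at highest concentration. TGI: total growth inhibition.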

Tests used:
Test in all cases: NCI-60 cell line screen, 48 h
NCI-H23 lung = tested on: NCI-H23 lung
EKVX NSCLC = tested on: EKVX NSCLC
RXF 393 renal = tested on: RXF 393 renal
DLD-1 colon = tested on: DLD-1 colon
SNB-78 CNS = tested on: SNB-78 CNS
SK-OV-3 ovarian = tested on: SK-OV-3 ovarian
SR leukemia = tested on: SR leukemia
HOP-18 NSCLC = tested on: HOP-18 NSCLC
SF-268 CNS = tested on: SF-268 CNS
COLO 205 colon = tested on: COLO 205 colon
TK-10 renal = tested on: TK-10 renal
NCI-H226 lung = tested on: NCI-H226 lung
OVCAR-5 ovarian = tested on: OVCAR-5 ovarian
IGROV1 ovarian = tested on: IGROV1 ovarian
RXF-631 renal = tested on: RXF-631 renal
ACHN renal = tested on: ACHN renal
CAKI-1 renal = tested on: CAKI-1 renal
A549 NSCLC = tested on: A549 NSCLC
SF-539 CNS = tested on: SF-539 CNS
HCC-2998 colon = tested on: HCC-2998 colon
HCT-116 colon = tested on: HCT-116 colon
UO-31 renal = tested on: UO-31 renal
KM20L2 colon = tested on: KM20L2 colon
A498 renal = tested on: A498 renal
HOP-62 NSCLC = tested on: HOP-62 NSCLC
HOP-92 NSCLC = tested on: HOP-92 NSCLC
MOLT-4 leukemia = tested on: MOLT-4 leukemia
SNB-19 CNS = tested on: SNB-19 CNS
UACC-62 melanoma = tested on: UACC-62 melanoma
SK-MEL-28 melanoma = tested on: SK-MEL-28 melanoma
DMS 114 small cell lung = tested on: DMS 114 small cell lung
LOX IMVI melanoma = tested on: LOX IMVI melanoma
UACC-257 melanoma = tested on: UACC-257 melanoma
KM12 colon = tested on: KM12 colon
OVCAR-4 ovarian = tested on: OVCAR-4 ovarian
M19-MEL melanoma = tested on: M19-MEL melanoma
U251 CNS = tested on: U251 CNS
SK-MEL-5 melanoma = tested on: SK-MEL-5 melanoma
SNB-75 CNS = tested on: SNB-75 CNS
NCI-H522 lung = tested on: NCI-H522 lung
SF-295 CNS = tested on: SF-295 CNS
SW-620 colon = tested on: SW-620 colon
SN12C renal = tested on: SN12C renal
OVCAR-3 ovarian = tested on: OVCAR-3 ovarian
OVCAR-8 ovarian = tested on: OVCAR-8 ovarian
HL-60(TB) leukemia = tested on: HL-60(TB) leukemia
CCRF-CEM leukemia = tested on: CCRF-CEM leukemia
XF 498 CNS = tested on: XF 498 CNS
DMS 273 small cell lung = tested on: DMS 273 small cell lung
HT29 colon = tested on: HT29 colon
K-562 leukemia = tested on: K-562 leukemia
MALME-3M melanoma = tested on: MALME-3M melanoma
SK-MEL-2 melanoma = tested on: SK-MEL-2 melanoma
HCT-15 colon = tested on: HCT-15 colon
786-0 renal = tested on: 786-0 renal
LXFL 529 NSCLC = tested on: LXFL 529 NSCLC
NCI-H460 lung = tested on: NCI-H460 lung
M14 melanoma = tested on: M14 melanoma
RPMI-8226 leukemia = tested on: RPMI-8226 leukemia

SMILES: Cc1c2ccccc2c(CO)c2cc(F)c3ccccc3c12
- TGI (NCI-H23 lung): > 100 µM
- TGI (EKVX NSCLC): > 100 µM
- TGI (RXF 393 renal): 61.5 µM
- TGI (DLD-1 colon): 43.6 µM
- TGI (SNB-78 CNS): 69.1 µM
- TGI (SK-OV-3 ovarian): 73.6 µM
- TGI (SR leukemia): 70.7 µM
- TGI (HOP-18 NSCLC): 89.9 µM
- TGI (SF-268 CNS): 71.2 µM
- TGI (COLO 205 colon): 32.2 µM
- TGI (TK-10 renal): 71.8 µM
- TGI (NCI-H226 lung): > 100 µM
- TGI (OVCAR-5 ovarian): 80.6 µM
- TGI (IGROV1 ovarian): 63.7 µM
- TGI (RXF-631 renal): 30.7 µM
- TGI (ACHN renal): 58.2 µM
- TGI (CAKI-1 renal): 79.4 µM
- TGI (A549 NSCLC): > 100 µM
- TGI (SF-539 CNS): > 100 µM
- TGI (HCC-2998 colon): > 100 µM
- TGI (HCT-116 colon): 40.3 µM
- TGI (UO-31 renal): > 100 µM
- TGI (KM20L2 colon): 48.6 µM
- TGI (A498 renal): > 100 µM
- TGI (HOP-62 NSCLC): 92.9 µM
- TGI (HOP-92 NSCLC): 78.4 µM
- TGI (MOLT-4 leukemia): 39.6 µM
- TGI (SNB-19 CNS): > 100 µM
- TGI (UACC-62 melanoma): > 100 µM
- TGI (SK-MEL-28 melanoma): > 100 µM
- TGI (DMS 114 small cell lung): 34.2 µM
- TGI (LOX IMVI melanoma): 36.1 µM
- TGI (UACC-257 melanoma): > 100 µM
- TGI (KM12 colon): 56.3 µM
- TGI (OVCAR-4 ovarian): 98.2 µM
- TGI (M19-MEL melanoma): > 100 µM
- TGI (U251 CNS): 50.3 µM
- TGI (SK-MEL-5 melanoma): > 100 µM
- TGI (SNB-75 CNS): > 100 µM
- TGI (NCI-H522 lung): 26.3 µM
- TGI (SF-295 CNS): 57.8 µM
- TGI (SW-620 colon): > 100 µM
- TGI (SN12C renal): 33.3 µM
- TGI (OVCAR-3 ovarian): 61.3 µM
- TGI (OVCAR-8 ovarian): 41.4 µM
- TGI (HL-60(TB) leukemia): 61 µM
- TGI (CCRF-CEM leukemia): 68 µM
- TGI (XF 498 CNS): 51 µM
- TGI (DMS 273 small cell lung): 32 µM
- TGI (HT29 colon): 49 µM
- TGI (K-562 leukemia): > 100 µM
- TGI (MALME-3M melanoma): > 100 µM
- TGI (SK-MEL-2 melanoma): 36.7 µM

SMILES: O=C1NC2OCC(O)C(O1)C2O (centres undefined)
- TGI (NCI-H23 lung): > 100 µM
- TGI (EKVX NSCLC): > 100 µM
- TGI (RXF 393 renal): > 100 µM
- TGI (DLD-1 colon): > 100 µM
- TGI (SNB-78 CNS): > 100 µM
- TGI (SK-OV-3 ovarian): > 100 µM
- TGI (SR leukemia): > 100 µM
- TGI (HOP-18 NSCLC): > 100 µM
- TGI (SF-268 CNS): > 100 µM
- TGI (COLO 205 colon): > 100 µM
- TGI (TK-10 renal): > 100 µM
- TGI (NCI-H226 lung): > 100 µM
- TGI (OVCAR-5 ovarian): > 100 µM
- TGI (HCT-15 colon): > 100 µM
- TGI (IGROV1 ovarian): > 100 µM
- TGI (RXF-631 renal): > 100 µM
- TGI (ACHN renal): > 100 µM
- TGI (786-0 renal): > 100 µM
- TGI (CAKI-1 renal): > 100 µM
- TGI (SF-539 CNS): > 100 µM
- TGI (LXFL 529 NSCLC): > 100 µM
- TGI (UO-31 renal): > 100 µM
- TGI (KM20L2 colon): > 100 µM
- TGI (A498 renal): > 100 µM
- TGI (HOP-62 NSCLC): > 100 µM
- TGI (NCI-H460 lung): > 100 µM
- TGI (HOP-92 NSCLC): > 100 µM
- TGI (MOLT-4 leukemia): > 100 µM
- TGI (SNB-19 CNS): > 100 µM
- TGI (UACC-62 melanoma): > 100 µM
- TGI (SK-MEL-28 melanoma): > 100 µM
- TGI (DMS 114 small cell lung): > 100 µM
- TGI (LOX IMVI melanoma): > 100 µM
- TGI (UACC-257 melanoma): > 100 µM
- TGI (KM12 colon): > 100 µM
- TGI (OVCAR-4 ovarian): > 100 µM
- TGI (M14 melanoma): > 100 µM
- TGI (M19-MEL melanoma): > 100 µM
- TGI (U251 CNS): > 100 µM
- TGI (SK-MEL-5 melanoma): > 100 µM
- TGI (SNB-75 CNS): > 100 µM
- TGI (NCI-H522 lung): > 100 µM
- TGI (SF-295 CNS): > 100 µM
- TGI (SW-620 colon): > 100 µM
- TGI (SN12C renal): > 100 µM
- TGI (OVCAR-3 ovarian): > 100 µM
- TGI (OVCAR-8 ovarian): > 100 µM
- TGI (HL-60(TB) leukemia): > 100 µM
- TGI (CCRF-CEM leukemia): > 100 µM
- TGI (XF 498 CNS): > 100 µM
- TGI (DMS 273 small cell lung): > 100 µM
- TGI (HT29 colon): > 100 µM
- TGI (RPMI-8226 leukemia): > 100 µM
- TGI (K-562 leukemia): > 100 µM
- TGI (MALME-3M melanoma): > 100 µM
- TGI (SK-MEL-2 melanoma): > 100 µM
